Assay results as given in patent publication US8101550B2, “Anthranilic acid diamide derivative with hetero-aromatic and hetero-cyclic substituents” (Bayer Cropscience AG, priority 2006, dated 2012).

How the values were obtained:
[1] = log P determination by HPLC on reverse-phase column (EEC Directive 79/831 Annex V.A8); format: physicochemical
How it was run: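 Log P was derived from retention times by linear interpolation between successive unbranched alkan-2-one standards (C3–C16). The standards and samples ran on a C18 reverse-phase column at 43 °C with a 10→95% acetonitrile gradient in 0.1% formic acid (pH 2.7). The method follows EEC Directive 79/831 Annex V.A8.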

[2] = tested on: caterpillars of the armyworm (Spodoptera frugiperda); test: Spodoptera frugiperda test (cabbage leaves, immersion); format: in vivo; settings: cabbage leaves immersed
Method: An appropriate preparation of active compound is prepared by mixing 1 part by weight of active compound with the stated amounts of solvent and emulsifier and diluting the concentrate with emulsifier-containing water to the desired concentration.
Cabbage leaves (Brassica oleracea) are treated by immersion into a preparation of active compound at the desired concentration and, are populated with caterpillars of the armyworm (Spodoptera frugiperda) while the leaves are still wet.
After the desired time the effect in % is determined. 100% means that all of the caterpillars have been killed; 0% means that no caterpillars have been killed.
Cabbage leaves (Brassica oleracea) are treated by immersion into a preparation of active compound at the desired concentration and are populated with caterpillars of the armyworm (Spodoptera frugiperda) while the leaves are still wet.

Heliothis virescens eggs = test: Heliothis virescens test; format: in vivo; settings: 300 ppm; eggs treated
Method: (§1) An appropriate preparation of active compound is prepared by mixing the active compound with the stated amounts of solvent and diluting the concentrate with […] water to the desired concentration.
The Heliothis virescens eggs are treated with a preparation of active compound at the desired concentration.
(§2) After the desired time the effect in % is determined. 100% means that all of the eggs/larvae have been killed; 0% means that no eggs/larvae have been killed.

Myzus persicae = Myzus persicae test; format: in vivo; settings: 30 ppm; preparation provided for consumption
Method: as §1
The Myzus persicae is provided with a preparation of active compound at the desired concentration for consumption.
After the desired time the effect in % is determined. 100% means that all of the aphids have been killed; 0% means that no aphids have been killed.

Aedes aegypti larvae = test: Aedes aegypti test; format: in vivo; settings: 30 ppm; larvae treated
Method: as §1
The Aedes aegypti larvae are treated with a preparation of active compound at the desired concentration.
After the desired time the effect in % is determined. 100% means that all of the Aedes aegypti have been killed; 0% means that no Aedes aegypti have been killed.

[3] = tested on: Diabrotica undecimpunctata eggs; test: Diabrotica undecimpunctata test; format: in vivo; settings: 300 ppm; eggs treated
Method: as §1
The Diabrotica undecimpunctata eggs are treated with a preparation of active compound at the desired concentration.
as §2

[4] = HPLC, reverse-phase column (C 18), 43° C., acidic range pH 2.7

Structure (SMILES)	Kill level after 7 d in % ([2]; 100 g/ha) [%]	logP ([1]; HPLC on reverse-phase column)	other results
CNC(=O)c1cc(Cl)cc(C)c1NC(=O)c1cc(Cn2nc(C(F)(F)F)cc2C(F)(F)F)nn1-c1ncccc1Cl [I-1-1, 5-(3,5-Bis-trifluoromethylpyrazol-1-ylmethyl)-2-(3-chloropyridin-2-yl)-2H-pyrazole-3-carboxylic acid 4-chloro-2-methyl-6-methylcarbamoylphenyl amide]	100		chromatographic logP ([1]; pH 2.7): 3.67
Cc1cc(Cl)cc(C(=O)NC(C)C)c1NC(=O)c1cc(Cn2nc(C(F)(F)F)cc2C(F)(F)F)nn1-c1ncccc1Cl [I-1-2]	100	4.08	
Cc1cc(Cl)cc(C(=O)NC(C)C)c1NC(=O)c1cc(Cn2nc(C(F)(F)F)nc2C(F)(F)F)nn1-c1ncccc1Cl [I-1-5]	100	3.88	Kill level after 7 d in % ([2]; 0.8 g/ha): 100%
Cc1cc(Cl)cc(C(=O)NC(C)C)c1NC(=O)c1cc(Cn2ccc(C(F)(F)F)n2)nn1-c1ncccc1Cl [I-1-6]	100	3.27	Kill level after 7 d in % ([2]; 0.8 g/ha): 100%
Cc1cc(Cl)cc(C(=O)NC(C)C)c1NC(=O)c1cc(Cn2cc(F)cn2)nn1-c1ncccc1Cl [I-1-7]	100	2.70	
Cc1cc(Cl)cc(C(=O)NC(C)C)c1NC(=O)c1cc(Cn2cc(C#N)cn2)nn1-c1ncccc1Cl [I-1-8]	100	2.57	Kill level after 7 d in % ([2]; 0.8 g/ha): 100%
Cc1cc(Cl)cc(C(=O)NC(C)C)c1NC(=O)c1cc(Cn2cccn2)nn1-c1ncccc1Cl [I-1-9]	100	2.45	
Cc1cc(Cl)cc(C(=O)NC(C)C)c1NC(=O)c1cc(Cn2nc(C(F)(F)F)cc2C(F)(F)F)nn1-c1ccccc1Cl [I-1-10]	100	4.70	
CNC(=O)c1cc(Cl)cc(C)c1NC(=O)c1cc(Cn2nc(C(F)(F)F)cc2C(F)(F)F)nn1-c1ccccc1Cl [I-1-11]	100	4.12	
Cc1cc(Cl)cc(C(=O)NC(C)C)c1NC(=O)c1cc(Cn2cc(C(F)(F)C(F)(F)F)c(C(F)(F)C(F)(F)F)n2)nn1-c1ncccc1Cl [I-1-12]	100	4.89	
Cc1cc(Br)cc(C(=O)NC(C)C)c1NC(=O)c1cc(Cn2cc(C(F)(F)C(F)(F)F)c(C(F)(F)C(F)(F)F)n2)nn1-c1ncccc1Cl [I-1-13]	100	4.98	Kill level after 6-7 d in % (Heliothis virescens eggs): 100%; Kill level after 6-7 d in % (Myzus persicae): 100%; Kill level after 2-4 d in % (Aedes aegypti larvae): 100%; Kill level after 2-5 d in % [3]: 100%
CNC(=O)c1cc(Cl)cc(C)c1NC(=O)c1cc(Cn2cc(I)c(C(F)(F)C(F)(F)F)n2)nn1-c1ncccc1Cl [I-1-16]	100	3.79	
CNC(=O)c1cc(Cl)cc(C)c1NC(=O)c1cc(Cn2cc(Cl)c(C(F)(F)F)n2)nn1-c1ncccc1Cl [I-1-17]	100	3.35	
Cc1cc(Cl)cc(C(=O)NC(C)C)c1NC(=O)c1cc(Cn2ccc(C(F)(F)C(F)(F)F)n2)nn1-c1ncccc1Cl [I-1-18]	100	3.75	
CNC(=O)c1cc(Cl)cc(C)c1NC(=O)c1cc(Cn2ccc(C(F)(F)C(F)(F)F)n2)nn1-c1ncccc1Cl [I-1-19]	100	3.29	
Cc1cc(Br)cc(C(=O)NC(C)C)c1NC(=O)c1cc(Cn2nc(C(F)(F)F)cc2C(F)(F)F)nn1-c1ncccc1Cl [I-1-20]	100	4.16	
Cc1cc(Cl)cc(C(=O)NC(C)C)c1NC(=O)c1cc(Cn2cncn2)nn1-c1ncccc1Cl [I-1-21]	100	2.02	
Cc1cc(Cl)cc(C(=O)NC(C)C)c1NC(=O)c1cc(Cn2nc(C(F)(F)C(F)(F)F)nc2C(F)(F)F)nn1-c1ncccc1Cl [I-1-23]	100	4.25	
CNC(=O)c1cc(Br)cc(C)c1NC(=O)c1cc(Cn2nc(C(F)(F)C(F)(F)F)cc2C(F)(F)C(F)(F)F)nn1-c1ncccc1Cl [I-1-24]	100	4.49	
CNC(=O)c1cc(Br)cc(C)c1NC(=O)c1cc(Cn2cc(C(F)(F)C(F)(F)F)c(C(F)(F)C(F)(F)F)n2)nn1-c1ncccc1Cl [I-1-25]	100	4.39	
CNC(=O)c1cc(Cl)cc(C)c1NC(=O)c1cc(Cn2nc(C(F)(F)C(F)(F)F)nc2C(F)(F)C(F)(F)F)nn1-c1ncccc1Cl [I-1-26]	100	4.17	

Structure (SMILES)	Kill level after 7 d in % ([2]; 100 g/ha) [%]	logP ([1]; HPLC on reverse-phase column)	other results
CNC(=O)c1cc(Cl)cc(C)c1NC(=O)c1cc(Cn2nc(C(F)(F)C(F)(F)F)cc2C(F)(F)C(F)(F)F)nn1-c1ncccc1Cl [I-1-27]		4.45	Kill level after 7 d in % ([2]; 20 g/ha): 83%
Cc1cc(Cl)cc(C(=O)NC(C)C)c1NC(=O)c1cc(Cn2nc(C(F)(F)C(F)(F)F)c(C(F)(F)F)c2F)nn1-c1ncccc1Cl [I-1-28]	100	4.63	
Cc1cc(Cl)cc(C(=O)NC(C)C)c1NC(=O)c1cc(Cn2nc(C(F)(F)C(F)(F)F)nc2C(F)(F)C(F)(F)F)nn1-c1ncccc1Cl [I-1-29]	100	4.64	
CNC(=O)c1cc(Cl)cc(C)c1NC(=O)c1cc(Cn2cc(Cl)c(C(F)(F)C(F)(F)F)n2)nn1-c1ncccc1Cl [I-1-30]	100	3.77	
Cc1cc(Cl)cc(C(=O)NC(C)C)c1NC(=O)c1cc(Cn2cc(Cl)c(C(F)(F)C(F)(F)F)n2)nn1-c1ncccc1Cl [I-1-31]	100	4.21	
Cc1cc(Cl)cc(C(=O)NCC#N)c1NC(=O)c1cc(Cn2cc(Cl)c(C(F)(F)C(F)(F)F)n2)nn1-c1ncccc1Cl [I-1-32]	100	3.70	
Cc1cc(Br)cc(C(=O)NCC#N)c1NC(=O)c1cc(Cn2cc(C(F)(F)C(F)(F)F)c(C(F)(F)C(F)(F)F)n2)nn1-c1ncccc1Cl [I-1-33]	100	4.28	
CNC(=O)c1cc(Cl)cc(C)c1NC(=O)c1cc(Cn2cc(Br)c(C(F)(F)C(F)(F)F)n2)nn1-c1ncccc1Cl [I-1-34]	100	3.80	
CNC(=O)c1cc(Cl)cc(C)c1NC(=O)c1cc(Cn2nc(C(F)(F)F)nc2C(F)(F)F)nn1-c1ncccc1Cl [I-1-35]	100	3.43	
CNC(=O)c1cc(Br)cc(C)c1NC(=O)c1cc(Cn2nc(C(F)(F)F)nc2C(F)(F)F)nn1-c1ncccc1Cl [I-1-36]	100	3.52	
Cc1cc(Br)cc(C(=O)NC(C)C)c1NC(=O)c1cc(Cn2nc(C(F)(F)C(F)(F)F)nc2C(F)(F)C(F)(F)F)nn1-c1ncccc1Cl [I-1-37]	100	4.73	
CNC(=O)c1cc(Br)cc(C)c1NC(=O)c1cc(Cn2nc(C(F)(F)C(F)(F)F)nc2C(F)(F)C(F)(F)F)nn1-c1ncccc1Cl [I-1-39]	100	4.31	
Cc1cc(Cl)cc(C(=O)NC(C)C)c1NC(=O)c1cc(Cn2nc(C(F)(F)F)nc2C(F)(F)F)nn1-c1c(Cl)cccc1Cl [I-1-40]	100	4.58	
Cc1cc(F)cc(C(=O)NC2CC2)c1NC(=O)c1cc(Cn2nc(C(F)(F)F)cc2C(F)(F)F)nn1-c1ncc(C(F)(F)F)cc1Cl [I-2-19]			logP [1, 4]: 4.11
Cc1cc(F)cc(C(=O)NC(C)C)c1NC(=O)c1cc(Cn2nc(C(F)(F)F)cc2C(F)(F)F)nn1-c1ncc(C(F)(F)F)cc1Cl [I-2-20]			logP [1, 4]: 4.47
Cc1cc(Br)cc(C(=O)NC(C)C)c1NC(=O)c1cc(Cn2nc(C(F)(F)F)cc2C(F)(F)F)nn1-c1ncc(C(F)(F)F)cc1Cl [I-2-21]			logP [1, 4]: 4.75
CNC(=O)c1cc(Cl)cc(C)c1NC(=O)c1cc(Cn2nc(C(F)(F)F)cc2C(F)(F)F)nn1-c1ncc(C(F)(F)F)cc1Cl [I-2-22]			logP [1, 4]: 3.53
CNC(=O)c1cc(Cl)cc(Cl)c1NC(=O)c1cc(Cn2nc(C(F)(F)F)cc2C(F)(F)F)nn1-c1ncc(C(F)(F)F)cc1Cl [I-2-23]			logP [1, 4]: 3.54
Cc1cc(Br)cc(C(=O)NC2CC2)c1NC(=O)c1cc(Cn2nc(C(F)(F)F)cc2C(F)(F)F)nn1-c1ncc(C(F)(F)F)cc1Cl [I-2-24]			logP [1, 4]: 4.63
CC(C)NC(=O)c1cc2ccccc2c(Cl)c1NC(=O)c1cc(Cn2nc(C(F)(F)F)cc2C(F)(F)F)nn1-c1ncccc1Cl [I-3-1]			logP [1, 4]: 4.08
